This note sets out measurements from US10744152B2, “Application of Asarum total polysaccharides in preparation of medicine for treating cough” (THE FIRST AFFILIATED HOSPITAL OF GUANGZHOU MEDICAL …, priority 2014, dated 2020).

Marks after values point to notes of the source that are not given here.

The test system of assay [1] is guinea pig models with cough hypersensitivity. Briefly: Antitussive effect on guinea pig models with cough hypersensitivity (CS-exposure 14 days, citric acid excitation). The following applies: for Antitussive rate: vs model group. The class given is in vivo. Here is the method: (1) Calculating the cough frequency within 6 min after citric acid excitation, and calculating the antitussive rate of each administration group by using the formula “the antitussive rate=(Nmodel group−Nadministration group)/Nmodel group×100%”.
(2) Calculating the cough latent period of each administration group within 6 min after citric acid excitation;
Experimental materials are same as those of the Embodiment 5. […] Schmidt var. Mandshuricum (Maxim.) Kitag. into pieces, adding 20 times amount of distilled water to soak the cut roots overnight, extracting decoction from boiling water for 6 hours, filtering the decoction with four layers of gauze, repeatedly decocting filter residues twice, 6 hours each time, combining the filtrates, concentrating the filtrate to 1000 ml, precipitating with 80% of ethanol, centrifuging (4500 r/m, 10 min), and conventionally drying the precipitates (washing the precipitates three times with each of ethanol and ether) to obtain coarse Asarum polysaccharides (Li Jingjing, Study on the Separation, Purification and Immunological Activity of Polysaccharide from Asarum heterotropoides, Journal of Changchun Normal University (Natural Science), 2008, 27(1): 54-58)), a group of the Asarum total polysaccharides extract in the Embodiment 1 (800 mg/kg), and a group of the Asarum total polysaccharide extract in the Embodiment 2 (800 mg/kg). The rest of experimental methods are same as the Embodiment 5.

Assay [2] has the same test system. Briefly: Airway inflammation indicators in BALF (TCC, classification of cells) of guinea pig models with cough hypersensitivity. Particulars: 30 mg/kg, 14 days. Type of assay: in vivo. From the text:
Experimental materials are same as those of the Embodiment 5. […] Schmidt var.

Assay [3] deals with guinea pig models with acute cough. As to the kind of experiment: Acute antitussive effect on cough of guinea pigs induced by citric acid.

In the case of `COc1ccc2c3c1O[C@H]1[C@@H](O)C=C[C@H]4[C@@H](C2)N(C)CC[C@@]341` [Codeine phosphate, codeine phosphate], the Cough frequency in assay [1] (30 mg/kg intragastric once a day 14 days, CS-exposure 14 days, within 6 min after citric acid) was 5.7 +/− 1.9*** times; in assay [1] (Embodiment 8 comparison of different extracts, 30 mg/kg, 14 days) it was 5.7 +/− 1.9*** times; in assay [3] (30 mg/kg once a day for 3 days, within 6 min after citric acid nebulization) it was 8.5 +/− 2.6*** times. Moreover, the Cough latent period is 199.7 +/− 37.7*** seconds in assay [1] (30 mg/kg, 14 days, CS-exposure, after citric acid) and 95.3 ± 18.3 s in assay [3] (30 mg/kg, 3 days, after citric acid nebulization). Also, the Antitussive rate in assay [1] (30 mg/kg, 14 days) stood at 81.1%; in assay [1] (Embodiment 8 comparison, 30 mg/kg, 14 days), 81.1%; in assay [3] (30 mg/kg, 3 days, vs blank control group) it was 70.5%. Also, in assay [2] (BALF), the Eos % was 3.6 +/− 3.1%. Besides, the Lym % in assay [2] (BALF) is listed as 5.3 +/− 1.1%. Also, the Mac % in assay [2] (macrophages in BALF) is 39.4 +/− 7.1%. Besides, the Neu % in assay [2] (neutrophils in BALF) is recorded as 51.8 +/− 8.4%.
